Assay results as given in publication PMC7997574, “Lead Optimization of Benzoxazolone Carboxamides as Orally Bioavailable and CNS Penetrant Acid Ceramidase Inhibitors” (Journal of Medicinal Chemistry, 2020).

What was measured:
[1] = test system: SH-SY5Y cells; assay: Sphingolipid levels in SH-SY5Y cells by LC/MS; assay type: cell-based, human
Protocol: SH-SY5Y cells were purchased from Sigma Aldrich (Italy) and cultured in Dulbecco’s modified Eagle’s medium (DMEM) containing 10% fetal bovine serum at 37 °C and 5% CO2. Drugs were dissolved in DMSO (10 mM) and diluted in the cell culture medium with reduced serum (1%) for cell treatments.
Lipid extraction and sphingolipid measurements were performed as previously described.[36],[37] Lipids were extracted with a CHCl3/MeOH mixture (2:1, 3 mL) containing internal standards. The organic phase was collected, dried under nitrogen, and dissolved in CHCl3/MeOH (1:3) for LC/MS analyses. Ceramides and sphingosine were analyzed by LC/MS/MS, using a Waters ACQUITY UPLC coupled to a Waters Xevo TQMS and interfaced with an ESI ion source. Separation was performed on a Waters ACQUITY BEH C18 1.7 μm column (2.1 × 50 mm) at 60 °C. A linear gradient of 0.1% formic acid in MeCN/isopropyl alcohol (20:80) as solvent B in 0.1% formic acid in MeCN/H2O (20:80) as solvent A was applied at a flow rate of 0.4 mL min^–1. Detection of sphingolipids was performed in positive-ion mode. Capillary voltage was 3.5 kV, and cone voltage was 25 V. The source temperature and desolvation temperatures were set at 120 and 600 °C, respectively. Desolvation gas and cone gas (N2) flows were 800 and 20 L h^–1, respectively. Ceramides were identified by comparison of their LC retention times and MS/MS fragmentation patterns with those of authentic standards (Avanti Polar Lipids). Multiple Reaction Monitoring (MRM) ion chromatograms were used to quantify myristoyl ceramide (C14:0, m/z: 492.5 > 264.3), palmitoyl ceramide (C16:0, m/z 520.3 > 264.3), stearoyl ceramide (C18:0, m/z: 548.3 > 264.3), lignoceroyl ceramide (C24:0, m/z: 632.3 > 264.3), and nervonoyl ceramide (C24:1 m/z: 630.3 > 264.3) using lauroyl ceramide standard (m/z: 464.5 > 264.3). Detection and analysis were controlled by Waters MassLynx software version 4.1. Sphingosine was identified by comparison of its LC retention times and MS2 fragmentation patterns with those of authentic standards (Avanti Polar Lipids). Extracted ion chromatograms were used to quantify sphingosine standard (d18:1, m/z: 300.5 > 282.5). Detection and analysis were controlled by Waters MassLynx software version 4.1. Calibration curves were prepared for every experiment.

[2] = In vivo pharmacokinetic study in male CD1 mice; details: mouse
Protocol: Male CD1 mice (22–24 g, 6 weeks old, SLAC Laboratory Animal Co. Ltd.) were group-housed in ventilated cages and had free access to water and food. They were maintained under a […] at controlled temperature and relative humidity. All efforts were made to minimize animal suffering and to use the minimal number of animals required to produce reliable results. All procedures were performed in accordance with the Ethical Guidelines on the Protection of Animals Used for Scientific Purposes at the DMPK Group at Shanghai ChemPartner Co., Ltd. 22m was administrated intravenously (i.v.) at 3 mg kg^–1 (vehicle: 100% saline at 0.6 mg mL^–1) via tail vein injection (N = 18) and via oral administration (p.o.) at 10 mg kg^–1 (vehicle: 100% saline at 2.0 mg mL^–1) by oral gavage (N = 18). Sample collection. Samples were collected at 0.25, 0.5, 1, 4, 8, and 24 h. Animals were sacrificed 24 h after 22m administration; plasma, brain, and CSF samples were collected and stored at −80 °C. Blood collection: The animal was restrained manually, and approximately 150 μL of blood/time point was collected into the K2EDTA tube via retro orbital puncture under anesthesia with isoflurane. The blood sample was put on ice and centrifuged to obtain the plasma sample (2000 × g, 5 min under 4 °C) within 15 min and then acidified following 100 μL of plasma + 1.0 μL of formic acid. An aliquot of 20 μL sample (pretreatment with 1% formic acid) was added with 200 μL of IS (propranolol, 40 ng mL^–1) in MeCN. The mixture was vortexed for 5 min and centrifuged at 6000 rpm for 10 min. The 0.5 μL mixture was injected into LC/MS/MS. Brain collection: Brain was removed and immediately homogenized immediately for 2 min with three volumes (v/w) of homogenizing solution (PBS:formic acid = 100:1), and then the solution was stored in tubes under −70 °C until analysis. An aliquot of 20 μL sample was added with 200 μL of MeCN, which contains IS (propranolol, 40 ng mL^–1) for protein precipitation. The mixture was vortexed for 5 min and centrifuged at 6000 rpm for 10 min. The 0.5 μL mixture was injected into LC/MS/MS. CSF collection: A midline incision was made on the neck. The muscle under the skin was cut to expose the cisterna magna. The CSF was collected by capillary. An aliquot of 3 μL sample was added with 90 μL of IS (propranolol, 40 ng mL^–1) in MeCN:H2O = 2:1 (added 1% formic acid). The mixture was vortexed for 5 min and centrifuged at 6000 rpm for 10 min. The 1.5 μL mixture was injected into LC/MS/MS. 22m sample levels were monitored on an LC/MS/MS-19 (API5500, Qtriple) system, using the calibration curve and […] as internal standard. Chromatography was carried out on a Waters BEH C18 column (2.1 × 50 mm, 1.7 μm) at 60 °C, setting a flow rate of 0.60 mL min^–1. Mobile phases were as follows: A = H2O/0.025% formic acid/1 mM NH4OAc and B = MeOH/0.025% formic acid/1 mM NH4OAc. After the initial 0.20 min at 10% of mobile phase B, the percentage of mobile phase B increased at 70% at 0.50 min, reaching steadily 90% in the range of 0.80–1.30 min. Then the system returned to the initial conditions in a single step until 1.80 min. The following parent (m/z)/daughter (m/z) transitions were monitored: 22m: m/z = 332.20/[…] Da; […] (IS): m/z: 260.30/116.10 Da.

[3] = plasma, oral bioavailability, 10 mg kg^–1 p.o.

Question: Which results are given for `CC(C)CNC(=O)n1c(=O)oc2cc(C3CCN(C)CC3)ccc21` [22m, N-Isobutyl-6-(1-methyl-4-piperidyl)-2-oxo-1,3-benzoxazole-3-carboxamide]?
Answer: hexosylceramide (HexCer) (d18:1/16:0) levels [1]: no major variations; sphingomyelin (SM) (d18:1/16:0) levels [1]: no major variations; ceramide levels, Cer (d18:0/16:0) and Cer (d18:1/16:0) ([1]; 3 h of incubation): intracellular accumulation of various ceramide species; sphingosine levels ([1]; 3 h of incubation): decrease in the levels of sphingosine; AUC at 24 h ([2]; iv, CSF, 3 mg kg^–1 i.v.): 77.8 ng·h/mL; Cmax at 24 h ([2]; iv, CSF, 3 mg kg^–1 i.v.): 71.6 ng/mL; Tmax ([2]; iv, CSF, 3 mg kg^–1 i.v.): 0.25 h; half-life at 24 h ([2]; iv, CSF, 3 mg kg^–1 i.v.): 0.661 h; AUC at 24 h ([2]; iv, brain, 3 mg kg^–1 i.v.): 10100 ng·h/mL; Cmax at 24 h ([2]; iv, brain, 3 mg kg^–1 i.v.): 6440 ng/mL; Tmax ([2]; iv, brain, 3 mg kg^–1 i.v.): 0.25 h; half-life at 24 h ([2]; iv, brain, 3 mg kg^–1 i.v.): 1.01 h; AUC at 24 h ([2]; iv, plasma, 3 mg kg^–1 i.v.): 212 ng·h/mL; half-life ([2]; iv, plasma, 3 mg kg^–1 i.v.): 1 h; half-life at 24 h ([2]; iv, plasma, 3 mg kg^–1 i.v.): 1.26 h; clearance at 24 h ([2]; iv, plasma, 3 mg kg^–1 i.v., read-out: Cl (L h^–1 kg^–1) (converted)): 235 mL/min/kg; Vd at 24 h ([2]; iv, plasma, 3 mg kg^–1 i.v., read-out: Vdss (L kg^–1)): 12.5 L/kg; bioavailability [2, 3]: 58%; bioavailability at 24 h [2, 3]: 58.3%; AUC at 24 h ([2]; po, CSF, 10 mg kg^–1 p.o.): 119 ng·h/mL; Cmax at 24 h ([2]; po, CSF, 10 mg kg^–1 p.o.): 52.2 ng/mL; Tmax ([2]; po, CSF, 10 mg kg^–1 p.o.): 1 h; half-life at 24 h ([2]; po, CSF, 10 mg kg^–1 p.o.): 1.23 h; AUC at 24 h ([2]; po, brain, 10 mg kg^–1 p.o.): 14600 ng·h/mL; Cmax at 24 h ([2]; po, brain, 10 mg kg^–1 p.o.): 6900 ng/mL; Tmax ([2]; po, brain, 10 mg kg^–1 p.o.): 1 h; half-life at 24 h ([2]; po, brain, 10 mg kg^–1 p.o.): 1.18 h; AUC at 24 h ([2]; po, plasma, 10 mg kg^–1 p.o.): 412 ng·h/mL; Cmax at 24 h ([2]; po, plasma, 10 mg kg^–1 p.o.): 216 ng/mL; Tmax at 24 h ([2]; po, plasma, 10 mg kg^–1 p.o.): 0.5 h; half-life at 24 h ([2]; po, plasma, 10 mg kg^–1 p.o.): 1.03 h
